Source: ChEMBL document CHEMBL3774317, “Design and synthesis of novel tamoxifen analogues that avoid CYP2D6 metabolism” (Eur J Med Chem, 2016)

Legend:
[1] = Cytotoxicity against human MOLT4 cells assessed as cell growth at 50 nM after 48 hrs by SRB assay; assay type: functional; conditions: MOLT-4, 48 h, read-out: Activity
[2] = Cytotoxicity against human RPMI8226 cells assessed as cell growth at 0.5 uM after 48 hrs by SRB assay; assay type: functional; conditions: RPMI-8226, 48 h, read-out: Activity
M14 [3] = experiment: Cytotoxicity against human M14 cells assessed as cell growth at 50 uM after 48 hrs by SRB assay; assay type: functional; conditions: M14, 48 h, read-out: Activity
[4] = Metabolic stability in human liver microsomes assessed as remaining parent compound level at 10 uM after 3 hrs in absence of NAPDH by LC/MS analysis; assay type: ADME; conditions: read-out: Drug metabolism
[5] = Cytotoxicity against human UACC257 cells assessed as growth inhibition after 48 hrs by SRB assay; assay type: functional; conditions: UACC-257, 48 h
[6] = Cytotoxicity against human UACC62 cells assessed as growth inhibition after 48 hrs by SRB assay; assay type: functional; conditions: UACC-62, 48 h; for CC50: read-out: LC50 (the source's name)
[7] = Cytotoxicity against human HCT15 cells assessed as cell growth at 0.5 uM after 48 hrs by SRB assay; assay type: functional; conditions: HCT-15, 48 h, read-out: Activity
[8] = Cytotoxicity against human UACC257 cells assessed as cell growth at 0.5 uM after 48 hrs by SRB assay; assay type: functional; conditions: UACC-257, 48 h, read-out: Activity
[9] = Cytotoxicity against human OVCAR4 cells assessed as cell growth at 0.5 uM after 48 hrs by SRB assay; assay type: functional; conditions: OVCAR-4, 48 h, read-out: Activity
[10] = Cytotoxicity against human RXF393 cells assessed as cell growth at 0.5 uM after 48 hrs by SRB assay; assay type: functional; conditions: RXF 393, 48 h, read-out: Activity
NCI-H226 [11] = experiment: Cytotoxicity against human NCI-H226 cells assessed as cell growth at 5 uM after 48 hrs by SRB assay; assay type: functional; conditions: NCI-H226, 48 h, read-out: Activity
NCI-H23 = experiment: Cytotoxicity against human NCI-H23 cells assessed as cell growth at 5 uM after 48 hrs by SRB assay; assay type: functional; conditions: NCI-H23, 48 h, read-out: Activity
NCI-H322M [12] = experiment: Cytotoxicity against human NCI-H322M cells assessed as cell growth at 5 uM after 48 hrs by SRB assay; assay type: functional; conditions: read-out: Activity
NCI-H226 [13] = experiment: Cytotoxicity against human NCI-H226 cells assessed as cell growth at 5 nM after 48 hrs by SRB assay; assay type: functional; conditions: NCI-H226, 48 h, read-out: Activity
[14] = Cytotoxicity against human OVCAR5 cells assessed as cell growth at 5 nM after 48 hrs by SRB assay; assay type: functional; conditions: OVCAR-5, 48 h, read-out: Activity
U-251 = experiment: Cytotoxicity against human U251 cells assessed as cell growth at 5 uM after 48 hrs by SRB assay; assay type: functional; conditions: U-251, 48 h, read-out: Activity
SK-MEL-5 = experiment: Cytotoxicity against human SK-MEL-5 cells assessed as cell growth at 5 uM after 48 hrs by SRB assay; assay type: functional; conditions: SK-MEL-5, 48 h, read-out: Activity
[15] = Cytotoxicity against human UO31 cells assessed as cell growth at 5 uM after 48 hrs by SRB assay; assay type: functional; conditions: UO-31, 48 h, read-out: Activity
SR [16] = experiment: Cytotoxicity against human SR cells assessed as cell growth at 50 uM after 48 hrs by SRB assay; assay type: functional; conditions: read-out: Activity
[17] = Cytotoxicity against human HCC2998 cells assessed as cell growth at 10^-7 M after 48 hrs by SRB assay; assay type: functional; conditions: HCC 2998, 48 h, read-out: Activity
[18] = Cytotoxicity against human SKOV3 cells assessed as cell growth at 10^-7 M after 48 hrs by SRB assay; assay type: functional; conditions: SK-OV-3, 48 h, read-out: Activity
CCRF-CEM = experiment: Cytotoxicity against human CCRF-CEM cells assessed as cell growth at 10^-6 M after 48 hrs by SRB assay; assay type: functional; conditions: read-out: Activity
SR [19] = experiment: Cytotoxicity against human SR cells assessed as cell growth at 10^-8 M after 48 hrs by SRB assay; assay type: functional; conditions: read-out: Activity
[20] = Cytotoxicity against human OVCAR8 cells assessed as cell growth at 10^-6 M after 48 hrs by SRB assay; assay type: functional; conditions: OVCAR-8, 48 h, read-out: Activity
[21] = Cytotoxicity against human PC3 cells assessed as cell growth at 10^-6 M after 48 hrs by SRB assay; assay type: functional; conditions: PC-3, 48 h, read-out: Activity
[22] = Cytotoxicity against human SNB19 cells assessed as cell growth at 10^-5 M after 48 hrs by SRB assay; assay type: functional; conditions: SNB-19, 48 h, read-out: Activity
M14 [23] = experiment: Cytotoxicity against human M14 cells assessed as cell growth at 10^-5 M after 48 hrs by SRB assay; assay type: functional; conditions: M14, 48 h, read-out: Activity
NCI-H322M [24] = experiment: Cytotoxicity against human NCI-H322M cells assessed as cell growth at 10^-8 M after 48 hrs by SRB assay; assay type: functional; conditions: read-out: Activity
KM12 = experiment: Cytotoxicity against human KM12 cells assessed as cell growth at 10^-8 M after 48 hrs by SRB assay; assay type: functional; conditions: KM12, 48 h, read-out: Activity
Malme-3M = experiment: Cytotoxicity against human MALME-3M cells assessed as cell growth at 10^-8 M after 48 hrs by SRB assay; assay type: functional; conditions: read-out: Activity
[25] = Cytotoxicity against human IGROV1 cells assessed as cell growth at 10^-8 M after 48 hrs by SRB assay; assay type: functional; conditions: IGROV-1, 48 h, read-out: Activity
[26] = Cytotoxicity against human Caki1 cells assessed as cell growth at 10^-8 M after 48 hrs by SRB assay; assay type: functional; conditions: CAKI-1, 48 h, read-out: Activity
MDA-MB-231 = experiment: Cytotoxicity against human MDA-MB-231 cells assessed as cell growth at 10^-8 M after 48 hrs by SRB assay; assay type: functional; conditions: MDA-MB-231, 48 h, read-out: Activity
[27] = Cytotoxicity against human Hs 578T cells assessed as cell growth at 10^-8 M after 48 hrs by SRB assay; assay type: functional; conditions: read-out: Activity
SK-MEL-2 = experiment: Cytotoxicity against human SK-MEL-2 cells assessed as cell growth at 10^-5 M after 48 hrs by SRB assay; assay type: functional; conditions: SK-MEL-2, 48 h, read-out: Activity
[28] = Cytotoxicity against human OVCAR4 cells assessed as cell growth at 10^-5 M after 48 hrs by SRB assay; assay type: functional; conditions: OVCAR-4, 48 h, read-out: Activity
[29] = Cytotoxicity against human RXF393 cells assessed as cell growth at 10^-5 M after 48 hrs by SRB assay; assay type: functional; conditions: RXF 393, 48 h, read-out: Activity
SN12C = experiment: Cytotoxicity against human SN12C cells assessed as cell growth at 10^-5 M after 48 hrs by SRB assay; assay type: functional; conditions: read-out: Activity
[30] = Cytotoxicity against human MOLT4 cells assessed as cell growth at 10^-4 M after 48 hrs by SRB assay; assay type: functional; conditions: MOLT-4, 48 h, read-out: Activity
NCI-H322M [31] = experiment: Cytotoxicity against human NCI-H322M cells assessed as cell growth at 10^-4 M after 48 hrs by SRB assay; assay type: functional; conditions: read-out: Activity
[32] = Cytotoxicity against human SF539 cells assessed as cell growth at 10^-4 M after 48 hrs by SRB assay; assay type: functional; conditions: SF-539, 48 h, read-out: Activity

Structure (SMILES): CCCCCCCCCC(=O)Oc1ccc(/C(=C(/C)c2ccccc2)c2ccc(OCCN3CCCC3)cc2)cc1
- growth at 0.05 µM [1]: 91%
- growth at 0.5 µM [2]: 61%
- growth at 50 µM (M14 [3]): -81%
- remaining at 3 h, 10 µM [4]: 54%
- GI50 [5]: 9.23 µM
- LC50 [5]: 30.6 µM
- TGI [5]: 16.8 µM
- GI50 [6]: 9.18 µM
- TGI [6]: 16.8 µM
- CC50 [6]: 30.9 µM
- growth at 0.5 µM [7]: 58%
- growth at 0.5 µM [8]: 76%
- growth at 0.5 µM [9]: 68%
- growth at 0.5 µM [10]: 61%
- growth at 5 µM (NCI-H226 [11]): 97%
- growth at 5 µM (NCI-H23): 80%
- growth at 5 µM (NCI-H322M [12]): 85%
- growth at 0.005 µM (NCI-H226 [13]): 93%
- growth at 0.005 µM [14]: 99%
- growth at 5 µM (U-251): 86%
- growth at 5 µM (SK-MEL-5): 90%
- growth at 5 µM [15]: 70%
- growth at 50 µM (SR [16]): -66%

Structure (SMILES): C/C(=C(/c1ccc(O)cc1)c1ccc(OCCN2CCCC2)cc1)c1ccccc1
- growth at 0.1 µM [17]: 92%
- growth at 0.1 µM [18]: 93%
- growth at 1 µM (CCRF-CEM): 102%
- growth at 0.01 µM (SR [19]): 96%
- GI50 [5]: 2.03 µM
- LC50 [5]: 7.61 µM
- TGI [5]: 3.93 µM
- GI50 [6]: 2.26 µM
- TGI [6]: 4.72 µM
- CC50 [6]: 9.84 µM
- growth at 1 µM [20]: 98%
- growth at 1 µM [21]: 103%
- growth at 10 µM [22]: -10%
- growth at 10 µM (M14 [23]): -58%
- growth at 0.01 µM (NCI-H322M [24]): 97%
- growth at 0.01 µM (KM12): 102%
- growth at 0.01 µM (Malme-3M): 99%
- growth at 0.01 µM [25]: 106%
- growth at 0.01 µM [26]: 87%
- growth at 0.01 µM (MDA-MB-231): 110%
- growth at 0.01 µM [27]: 100%
- growth at 10 µM (SK-MEL-2): -67%
- growth at 10 µM [28]: 31%
- growth at 10 µM [29]: -37%
- growth at 10 µM (SN12C): 48%
- growth at 100 µM [30]: -61%
- growth at 100 µM (NCI-H322M [31]): -91%
- growth at 100 µM [32]: -86%
